What is called inhibition is the percentage by which the read-out fell short of the control. The term IC50 denotes the concentration that inhibits the measured activity by half. A low value points to greater potency.

One test has as its target T1, Lyn kinase (Homo sapiens, UniProt P07948).
T1 construct: purchased Upstate Biotechnology, Lake Placid, N.Y
The test is described as follows: Lyn Kinase Assay. Type of test: biochemical. The following applies: for inhibition at 2 µM: test concentration of 2 μM, read-out: Lyn percent inhibition. How it is done:
A mixture of a 10× kinase buffer (500 mM MOPS at pH 7.5, 1 mM EGTA, 1 mM Sodium Vanadate, 1% β-mercaptoethanol and 100 mM Magnesium Acetate), ATP (5 μM final from a 10 mM stock), polyGluTyr (0.1 mg/mL final from a 1 mg/mL stock), γ-^33P ATP (10 μCi/μL stock) and water (20 μL/well) was added to each well of a Streptavidin Flashplate.
Test compound in 100% DMSO (0.5 μL) was added to the appropriate wells. Diluted Lyn kinase (human) (Upstate Biotechnology, Lake Placid, N.Y.) (diluted in a buffer consisting of 50 mM Tris at pH 7.5, 0.1 mM EGTA, Sodium Vanadate (0.1 mM), β-mercaptoethanol (0.1%) and 1 mg/mL bovine serum albumin) (2.5 μL) was added to the wells to initiate the reactions.
The reaction plates were incubated at 30° C. for 40 min. The reaction was terminated by the addition of a 3% phosphoric acid solution (5 μL). The reaction product (10 μL) was spotted onto a P30 filtermat and washed for 5 minutes in phosphoric acid (75 mM). The wash sequence was repeated two more times, followed with one final wash in methanol. The plates were then dried, sealed and read on the TopCount scintillation counter after adding 30 μL scintillation fluid.
Percent inhibition was derived according to the procedure described in Example 2. For those compounds without an IC50, the percent inhibition results are shown at a test concentration of 2 μM.

Another test relates to HCT-116 colon carcinoma. The test is described as follows: Cell Proliferation Inhibition Assay (14C-thymidine incorporation), HCT116. The format is cell-based. The following applies: Homo sapiens. How it is done: (§1) The ability of a test compound to inhibit unregulated cell proliferation was determined by measuring incorporation of ^14C-labelled thymidine into newly synthesized DNA within cell lines derived from carcinomas originating from several tissues. Accordingly, the anti-proliferative effect of a compound on cells with a variety of phenotypes may be determined.
(§2) Carcinoma cell lines include those such as HeLa cervical adenocarcinoma (American Type Culture Collection (ATCC), Virginia, Cat. #CCL-2), A375 malignant melanoma (ATCC CRL-1619), SK-OV-3 ovarian adenocarcinoma (ATCC HTB-77), HCT-116 colon carcinoma (CCL-247), PC-3 prostate adenocarcinoma (ATCC CRL-1435), and MDA-MB-231 (Xenogen Corp.)
(§3) The carcinoma cells were trypsinized and counted. The cells (3000-8000 count) were added to each well of a 96-well CytoStar tissue culture treated scintillating microplate (Amersham #RPNQ0160) in complete medium (100 μL) and the plate was then incubated in complete medium for 24 hrs at 37° C. in an […] atmosphere containing 5% CO2. Test compound (1 μL) in 100% DMSO was added to the plate test-wells with DMSO only added to control-wells. The plate was incubated in complete medium for a second 24 hr period at 37° C. in an atmosphere containing 5% CO2.
(§4) An aliquot of a solution of Methyl ^14C-thymidine ([…]) (NEN #NEC568 or Amersham #CFA532) and complete medium (20 uL to provide 0.2 μCi/well) was then added to each well and the plate was incubated for a third 24 hr period at 37° C. in an atmosphere containing 5% CO2. The plate contents were then discarded, the plate was washed twice with PBS (200 μL) and then PBS (200 μL) was added to each well. The plate was sealed and the degree of methyl ^14C-thymidine incorporation was quantified on a Packard Top Count.
On the technique in general: Incorporation of labelled thymidine or its analogues reports DNA synthesis.

The subject of test [1] is HeLa cervical adenocarcinoma. The test is described as follows: Cell Proliferation Inhibition Assay (14C-thymidine incorporation), HeLa. The following applies: Homo sapiens. Type of test: cell-based. How it is done: as §1, §2, §3, §4

T1 sequence (P07948 whole entry): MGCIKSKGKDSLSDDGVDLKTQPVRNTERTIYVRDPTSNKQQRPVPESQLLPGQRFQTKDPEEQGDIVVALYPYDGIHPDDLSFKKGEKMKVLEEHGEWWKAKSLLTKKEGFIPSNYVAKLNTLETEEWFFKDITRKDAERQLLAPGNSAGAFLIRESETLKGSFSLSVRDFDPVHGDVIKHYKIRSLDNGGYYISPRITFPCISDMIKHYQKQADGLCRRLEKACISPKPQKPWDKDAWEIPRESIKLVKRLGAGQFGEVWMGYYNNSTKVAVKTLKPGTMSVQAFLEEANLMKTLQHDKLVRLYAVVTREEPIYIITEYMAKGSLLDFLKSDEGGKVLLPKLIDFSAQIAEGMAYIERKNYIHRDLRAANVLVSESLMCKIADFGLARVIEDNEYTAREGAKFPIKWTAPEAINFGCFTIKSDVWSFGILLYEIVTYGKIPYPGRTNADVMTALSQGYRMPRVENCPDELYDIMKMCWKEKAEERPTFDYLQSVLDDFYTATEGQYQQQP

As to `N#Cc1cnc2sc(C(=O)Nc3ccc(CCN4CCOCC4)cc3)c3c2c1N(c1c(Cl)ccc2c1OCO2)C(=O)N3` [Cpd 13, 5-(5-chloro-benzo[1,3]dioxol-4-yl)-6-cyano-4-oxo-4,5-dihydro-3H-1-thia-3,5,8-triaza-acenaphthylene-2-carboxylic acid [4-(2-morpholin-4-yl-ethyl)-phenyl]-amide], the inhibition at 2 µM on Lyn kinase is 76%.

In the case of `CN1CCC(NC(=O)c2sc3ncc(C#N)c4c3c2NC(=O)N4c2c(Cl)ccc3c2OCO3)CC1` [Cpd 10, 5-(5-chloro-benzo[1,3]dioxol-4-yl)-6-cyano-4-oxo-4,5-dihydro-3H-1-thia-3,5,8-triaza-acenaphthylene-2-carboxylic acid (1-methyl-piperidin-4-yl)-amide], it took 0.268 µM to reach half-maximal inhibition at Lyn kinase (IC50).

Take `N#Cc1cnc2sc(C(=O)Nc3ccc(CN4CCCCC4)cc3)c3c2c1N(c1ccc(Oc2ccccc2)cc1)C(=O)N3` [Cpd 49, 6-cyano-4-oxo-5-(4-phenoxy-phenyl)-4,5-dihydro-3H-1-thia-3,5,8-triaza-acenaphthylene-2-carboxylic acid (4-piperidin-1-ylmethyl-phenyl)-amide]: the IC50 with HCT-116 colon carcinoma turned out to be 0.985 µM; in test [1], 2.19 µM.

Regarding `COc1cc(NC(=O)c2sc3ncc(C#N)c4c3c2NC(=O)N4c2ccc(Oc3ccccc3)cc2)ccc1CN1CCOCC1` [Cpd 45, 6-cyano-4-oxo-5-(4-phenoxy-phenyl)-4,5-dihydro-3H-1-thia-3,5,8-triaza-acenaphthylene-2-carboxylic acid (3-methoxy-4-morpholin-4-ylmethyl-phenyl)-amide], the concentration for half-maximal inhibition (IC50) in the test with HCT-116 colon carcinoma is above 10 µM; in test [1] it was above 100 µM.

As to `COc1cc(N2C(=O)Nc3c(C(=O)Nc4ccc(CN5CCOCC5)cc4)sc4ncc(C#N)c2c34)c(Cl)cc1Cl` [Cpd 5, 6-cyano-5-(2,4-dichloro-5-methoxy-phenyl)-4-oxo-4,5-dihydro-3H-1-thia-3,5,8-triaza-acenaphthylene-2-carboxylic acid (4-morpholin-4-ylmethyl-phenyl)-amide], on Lyn kinase, the inhibition at 2 µM was found to be 83%.

As for `CN(C)C1CCN(Cc2ccc(NC(=O)c3sc4ncc(C#N)c5c4c3NC(=O)N5c3c(Cl)ccc4c3OCO4)cc2)CC1` [Cpd 42, 5-(5-chloro-benzo[1,3]dioxol-4-yl)-6-cyano-4-oxo-4,5-dihydro-3H-1-thia-3,5,8-triaza-acenaphthylene-2-carboxylic acid [4-(4-dimethylamino-piperidin-1-ylmethyl)-phenyl]-amide], the half-maximal inhibitory concentration (IC50) (in the test on HCT-116 colon carcinoma; in test [1]) was above 100 µM throughout.

Turning to `COC1CCN(Cc2ccc(NC(=O)c3sc4ncc(C#N)c5c4c3NC(=O)N5c3c(Cl)ccc4c3OCO4)cc2)CC1` [Cpd 18, 5-(5-chloro-benzo[1,3]dioxol-4-yl)-6-cyano-4-oxo-4,5-dihydro-3H-1-thia-3,5,8-triaza-acenaphthylene-2-carboxylic acid [4-(4-methoxy-piperidin-1-ylmethyl)-phenyl]-amide], the inhibition at 2 µM on Lyn kinase is 86%.

As to `N#Cc1cnc2sc(C(=O)Nc3ccc(CCN4CCCCC4)cc3)c3c2c1N(c1ccc(Oc2ccccc2)cc1)C(=O)N3` [Cpd 48, 6-cyano-4-oxo-5-(4-phenoxy-phenyl)-4,5-dihydro-3H-1-thia-3,5,8-triaza-acenaphthylene-2-carboxylic acid [4-(2-piperidin-1-yl-ethyl)-phenyl]-amide], the IC50 is 15.8 µM in the test on HCT-116 colon carcinoma and above 10 µM in test [1].

With `CC(C)(C)OC(=O)NC1CCN(Cc2ccc(NC(=O)c3sc4ncc(C#N)c5c4c3NC(=O)N5c3c(Cl)ccc4c3OCO4)cc2)CC1` [Cpd 46, [1-(4-{[5-(5-chloro-benzo[1,3]dioxol-4-yl)-6-cyano-4-oxo-4,5-dihydro-3H-1-thia-3,5,8-triaza-acenaphthylene-2-carbonyl]-amino}-benzyl)-piperidin-4-yl]-carbamic acid tert-butyl ester], the 50% inhibitory concentration (IC50) (in the test with HCT-116 colon carcinoma; in test [1]) was above 10 µM each time.

Consider `N#Cc1c(N2CCOCC2)nc2sc(C(=O)Nc3ccc(CN4CCOCC4)cc3)c3c2c1N(c1c(Cl)ccc2c1OCO2)C(=O)N3` [Cpd 8, 5-(5-chloro-benzo[1,3]dioxol-4-yl)-6-cyano-7-morpholin-4-yl-4-oxo-4,5-dihydro-3H-1-thia-3,5,8-triaza-acenaphthylene-2-carboxylic acid (4-morpholin-4-ylmethyl-phenyl)-amide], for which, at Lyn kinase, the inhibition at 2 µM stood at 40%.

As to `CCOC(=O)c1sc2nc(N3CCOCC3)c(C#N)c3c2c1NC(=O)N3c1c(Cl)ccc2c1OCO2` [Cpd 7, 5-(5-chloro-benzo[1,3]dioxol-4-yl)-6-cyano-7-morpholin-4-yl-4-oxo-4,5-dihydro-3H-1-thia-3,5,8-triaza-acenaphthylene-2-carboxylic acid ethyl ester], on Lyn kinase, the inhibition at 2 µM stood at 43%.

As for `Cc1nc2sc(C(=O)Nc3ccc(CN4CCOCC4)cc3)c3c2c(c1C#N)N(c1c(Cl)ccc2c1OCO2)C(=O)N3` [Cpd 9, 5-(5-chloro-benzo[1,3]dioxol-4-yl)-6-cyano-7-methyl-4-oxo-4,5-dihydro-3H-1-thia-3,5,8-triaza-acenaphthylene-2-carboxylic acid (4-morpholin-4-ylmethyl-phenyl)-amide], the inhibition at 2 µM at Lyn kinase stood at 58%.

Regarding `COc1cc(N2C(=O)Nc3c(C(=O)Nc4ccc(CCN5CCOCC5)cc4)sc4ncc(C#N)c2c34)c(Cl)cc1Cl` [Cpd 6, 6-cyano-5-(2,4-dichloro-5-methoxy-phenyl)-4-oxo-4,5-dihydro-3H-1-thia-3,5,8-triaza-acenaphthylene-2-carboxylic acid [4-(2-morpholin-4-yl-ethyl)-phenyl]-amide], the inhibition at 2 µM on Lyn kinase is 75%.

On to `N#Cc1cnc2sc(C(=O)Nc3ccc(CCN4CCCCC4)cc3)c3c2c1N(c1c(Cl)ccc2c1OCO2)C(=O)N3` [Cpd 11, 5-(5-chloro-benzo[1,3]dioxol-4-yl)-6-cyano-4-oxo-4,5-dihydro-3H-1-thia-3,5,8-triaza-acenaphthylene-2-carboxylic acid [4-(2-piperidin-1-yl-ethyl)-phenyl]-amide], for which 0.113 µM corresponded to half-maximal inhibition at Lyn kinase (IC50).

In the case of `CN(C)C1CCN(C(=O)c2sc3ncc(C#N)c4c3c2NC(=O)N4c2c(Cl)ccc3c2OCO3)CC1` [Cpd 41, 5-(5-chloro-benzo[1,3]dioxol-4-yl)-2-(4-dimethylamino-piperidine-1-carbonyl)-4-oxo-4,5-dihydro-3H-1-thia-3,5,8-triaza-acenaphthylene-6-carbonitrile], the figures for the half-inhibitory concentration (IC50) (in the test with HCT-116 colon carcinoma; in test [1]) were above 10 µM and above 100 µM, respectively.

In the case of `CN1CCN(CCc2ccc(NC(=O)c3sc4ncc(C#N)c5c4c3NC(=O)N5c3c(Cl)ccc4c3OCO4)cc2)CC1` [Cpd 12, 5-(5-chloro-benzo[1,3]dioxol-4-yl)-6-cyano-4-oxo-4,5-dihydro-3H-1-thia-3,5,8-triaza-acenaphthylene-2-carboxylic acid {4-[2-(4-methyl-piperazin-1-yl)-ethyl]-phenyl}-amide], the inhibition at 2 µM at Lyn kinase came to 93%.

At Lyn kinase, `N#Cc1cnc2sc(C(=O)Nc3ccc(CN4CCOCC4)cc3)c3c2c1N(c1c(Cl)ccc2c1OCO2)C(=O)N3` [Cpd 4, 5-(5-chloro-benzo[1,3]dioxol-4-yl)-6-cyano-4-oxo-4,5-dihydro-3H-1-thia-3,5,8-triaza-acenaphthylene-2-carboxylic acid (4-morpholin-4-ylmethyl-phenyl)-amide] returned an IC50 of 0.477 µM.
